Assay results as given in patent US10716313B2, “Ampicillin resistant texturizing lactic acid bacteria strains” (Chr. Hansen A/S, priority 2012, dated 2020).

Test system: Lactobacillus delbrueckii subsp. bulgaricus
Assay: Ampicillin growth reduction (OD600) in MRS broth
Assay type: cell-based
Conditions: at least 20 hours at 37° C., stated as typical
Experimental: In order to isolate ampicillin resistant mutants of the Lactobacillus delbrueckii subsp. bulgaricus strain CHCC13995, cells derived from the growth of a single colony were inoculated anaerobically into 10 ml MRS broth containing one of the following amounts of ampicillin, 0 ng/ml, 100 ng/ml, 200 ng/ml, 300 ng/ml, 400 ng/ml, 500 ng/ml, 600 ng/ml or 700 ng/ml, and grown for at least 20 hours at 37° C. After the 20 hours of growth OD600 is measured for all samples. Typically the concentration of ampicillin that reduces the OD600 measured anaerobic growth of Lactobacillus delbrueckii subsp. bulgaricus with at least 20% as compared to the growth in MRS medium without ampicillin (i.e. with 0 ng/ml ampicillin) is higher than 300 ng/ml. Cultures where the concentration of ampicillin was 500 ng/ml were diluted and plated on MRS agar plates with no ampicillin added and then incubated anaerobically for at least 20 hours at 37° C. Colonies were then picked and screened for anaerobic growth at 37° C. in microtiter plates in the presence of 500 ng/ml ampicillin. Typically, 25% of the resulting colonies were identified as fast growers in the presence of ampicillin. These were chosen for further study. The selected ampicillin resistant mutants were further purified and tested for their ability to grow in milk. […]

With CC1(C)S[C@@H]2[C@H](NC(=O)[C@H](N)c3ccccc3)C(=O)N2[C@H]1C(=O)O [ampicillin] the “concentration of ampicillin that reduces the OD600 measured anaerobic growth with at least 20% as compared to the growth in MRS medium without ampicillin” value was “higher than 300 ng/ml”.
